Experimental data: patent US20110212899A1, “Corneal Neuritogenesis Promoter Containing Pacap and Its Derivative” (priority 2004, published 2011)
Where no end group is shown, it is not given here.

What was measured:
[1] = tested on: excised rabbit lacrimal gland; assay: Promoting effect on protein secretion from an excised lacrimal gland (2) (Test Example 5); format: cell-based; settings: 10^−7 M, incubated 60 minutes; p<0.05
Experimental: A lacrimal gland was excised from a rabbit and incubated in a solution containing PACAP27 or peptide 24, and changes in the amount of secreted protein were examined as lacrimal gland stimulating activity.
(§1) Japanese white rabbits with a body weight of 1.5 to 2.0 kg purchased from Fukusaki Rabbit warren were used. The animals were each put in separate cages placed in a room wherein a temperature of 23±3° C. and a humidity of 55±10% were kept and a light was on for 12 hours per day (lighting at 8:00 and lights-out at 20:00), and raised after arrival until the final day of the test. The animals were given 100 g of solid feed (Labo R Stock, Nosan Corporation) per day, and could freely have tap water.
PACAP27 and peptide 24 were used as test substances. Test substance solutions were prepared as follows. […]
The section sample in a stationary state was incubated in 0.5 mL of a fresh incubation solution at 37° C. for 20 minutes under a mixed gas atmosphere of 95% oxygen and 5% carbon dioxide. After completion of the incubation, the incubation solution was collected, and the protein amount in the solution was determined by using a protein staining reagent (DC Protein Assay Reagent, Bio Rad). […] The incubation solution was collected, and the protein amount in the incubation solution was determined. […]

[2] = tested on: rabbit cornea (corneal flap model); assay: Improving effect on reduced sensitivity of the rabbit cornea caused by using a microkeratome (2) (Test Example 7); format: in vivo; settings: 0.01% eye drops, 50 μL 4 times a day for 8 weeks; 7 and 8 weeks after creation of the corneal flap
Experimental: as §1, with “Male Japanese” for “Japanese”, “Kitayama Labes Co., Ltd” for “Fukusaki Rabbit warren”
Peptide 24 was used as a test substance. The test substance was dissolved in the following vehicle solution at a concentration of 0.01% to prepare eye drops. […]
Corneal sensitivity was measured before the surgery and once a week from the first week to the eighth week after the surgery using the Cochet-Bonnet aesthesiometer.
Corneal sensitivity was determined by the frequency of eyeblink responses induced when a nylon filament attached to the Cochet-Bonnet aesthesiometer was contacted the center of the cornea of the animal. […] When the animal was judged to have corneal sensitivity twice or more, the maximum value (the longest length of the nylon filament of the aesthesiometer) was recorded as corneal sensitivity of the individual at that measurement time point. The measurement was blind trial so that an examiner could not know which group the rabbit being measured belonged to. […]

His-Ser-Asp-Ala-Ile-Phe-Thr-Asp-Ser-Tyr-Ser-Arg-Tyr-Arg-Arg-Gln-Leu-Ala-Val-Arg-Arg-Tyr-Leu-Ala-Ala-Val-Leu-Gly-Arg-Arg-NH2 (HSDAIFTDSYSRYRRQLAVRRYLAAVLGRR-NH2) [Peptide 24]
protein secretion rate of excised lacrimal gland compared with control group [1]: significant increase
corneal sensitivity (Cochet-Bonnet aesthesiometer) compared with control group [2]: statistically significant improving effect
